Measured values published in patent US10806736B2 (priority 2018, dated 2020).
“Also recorded” adds a separate entry of the source.

Key:
[1] = test system: Mycobacterium tuberculosis H37Ra; format: cell-based; conditions: 10 μM; after 24 hours
p53 = p53 protein expression by western blotting in macrophages infected with M. tuberculosis; format: cell-based; conditions: rat BMDMs infected with M. tuberculosis H37Ra (one bacterium per cell); 10 μM; compared to Nutlin-3α; β-actin inner control
From the text: It is confirmed whether p53 is expressed, when a cell is infected with M. tuberculosis, by subjecting the cell to the compound (K279-1558). Also, in order to analyze the role of p53 expression, the effect of p53 expression is confirmed from macrophages infected with M. tuberculosis. The cells were infected with avirulent M. tuberculosis (Mycobacterium tuberculosis H37Ra) in a ratio of one bacterium per cell by using bone marrow-derived macrophages (BMDMs), which is a rat-derived macrophage, and then the cells were subjected to Nutlin-3α and the compound (K279-1558) in a concentration of 10 μM. Thereafter, the number of M. tuberculosis surviving in the cells was measured.

Structure (SMILES)	number of M. tuberculosis surviving in macrophages [1]	p53 activity / degree of p53 protein expression (western blotting) (p53)
COc1ccc(C2=N[C@@H](c3ccc(Cl)cc3)[C@@H](c3ccc(Cl)cc3)N2C(=O)N2CCNC(=O)C2)c(OC(C)C)c1 [Nutlin-3α, reference compound]	decreased sharply	
CCC(SC1=Nc2ccccc2C2=NC(CC(=O)NCCc3ccccc3)C(=O)N12)C(=O)NCc1ccc(C)cc1 (stereo not drawn) [K279-1558]	dropped sharply; also recorded: decreased sharply	remarkably higher; also recorded: increases remarkably
